Here are results for six compounds from US20230277553A1, “THERAPEUTIC COMPOSITION OF CURE-PRO COMPOUNDS FOR TARGETED DEGRADATION OF BET DOMAIN PROTEINS, AND METHODS OF MAKING AND USAGE” (CORNELL UNIVERSITY, priority 2020, published 2023).

Common to all, as to type: cell-based
For test [1], the target named is T1, BRD4 (Homo sapiens, UniProt O60885). Description: CURE-PRO-mediated BRD4 degradation, Western blot, HeLa cells. The arrangement: endogenous in cells; host or cells: HeLa. To be noted: 24 h; for BRD4 degradation, BRD ligand alone: BRD monomer alone; for BRD4 degradation, co-treatment with CRBN ligand 8048: 1:1 with 8048, 1-10 μM each; for BRD4 degradation, co-treatment with CRBN ligand 8049: 1:1 with 8049, 1-10 μM each. The procedure:
(§1) All cell lines were purchased from ATCC or DSMZ and grown at 37° C. with 5% CO2. Human HeLa cells were cultured in complete growth medium (Dulbecco's modified Eagle's medium (DMEM) supplemented with 10% FBS); MCF7 cells were cultured in complete growth medium (Dulbecco's modified Eagle's medium (DMEM) supplemented with 10% FBS and 0.01 mg/ml human recombinant insulin (Sigma Aldrich); Namalwa and MOLM-13 cells were cultured in complete growth medium (RPMI 1640 medium supplemented with 10% FBS); MV-4-11 were cultured in complete growth medium (Iscove's Modified Dulbecco's medium, supplemented with 10% FBS); HCT116 cells were cultured in complete growth medium (McCoy's 5a Medium supplemented with 10% FBS). For cellular degradation of BRD4 studies, cells were seeded in a 12-well plate at 70-80% confluency, allowed to attach overnight, and incubated with the indicated compounds for the indicated time. When indicated, a 15-minute pretreatment with 10 μM pomalidomide, 10 μM VHL298, 10 μM Nutlin3a, 1 μM MG-132 or 1 μM Carfilzomib was performed before the addition of CURE-PROs. For washout studies, after CURE-PRO treatment, media was aspirated and incubated with complete medium for the indicated time before lysis.
Anti-BRD4 (13440, 1:1,000 dilution for Western Blot and 1:25 dilution for ProteinSimple); Anti-BRD2 (5848 1:1,000 dilution for Western Blot and 1:25 dilution for ProteinSimple); β-Actin (3700, 1:2,000 dilution for Western Blot), β-Actin (4970, 1:50 dilution for ProteinSimple) anti-mouse IgG-HRP, and anti-rabbit IgG-HRP antibodies were purchased Cell Signaling Technology. Anti-GAPDH (600-401-A33, 1:100 dilution for ProteinSimple) was purchased from Rockland Immunochemicals, Inc. Anti-BRD3 (sc-81202, 1:200 dilution for Western Blot) was purchased from Santa Cruz Biotechnology.
HeLa, MCF7, or HCT116 cells (2.5-3×10^6) were treated for 24 hours with the indicated compounds solubilized in DMSO. The cells were washed in ice-cold PBS and were then lysed in RIPA lysis buffer (150 mM NaCl, 5 mM EDTA, 1% NP-40, 0.5% sodium deoxycholate, 0.1% SDS, 50 mM Tris, pH 8.0.) with Roche protease inhibitor complete cocktail and phosphatase inhibitors (10 mM sodium fluoride, 10 mM sodium pyrophosphate, 1 mM sodium orthovanadate and 20 mM β-glycerophosphate). The total protein concentrations were determined by Bradford Protein Assay and 10-20 μg of protein was loaded onto 4-15% Tris-Glycine gradient gels (Biorad). After standard gel electrophoresis, the separated proteins were transferred to PVDF membrane by wet transfer. The immunoblots were then blocked for 1 hour in 5% skim milk in TBST or 5% BSA in TBST, according to manufacturer's instructions, before an overnight incubation at 4° C. with indicated antibodies and membranes. Membranes were then incubated with the appropriate horseradish peroxidase-conjugated secondary antibodies (1:5,000 dilution) for 1 h at room temperature and the bands were visualized using the Clarity Max Western ECL Substrate (Biorad) and the ChemiDoc Imaging System (Biorad). Signal was detected with ECL Western Blotting Substrate (Pierce) and X-ray film processed with a Konica SRX-101 X-ray film processor or captured by Bio-Rad's Chemidoc Imaging system.
HeLa cells (2.5×106) were treated for 24 hours with the sample compounds solubilized in DMSO. Compounds were added at 1-10 μM each. Standardized protein samples were electrophoresed and imaged as described in the immunoblotting description above. FIGS. 6-18 depicts the CURE-PRO-mediated BRD4 degradation for BRD monomers (JQ1 derivatives comprising of catechol linkers), and CRBN ligands, 8048 and 8049 (pomalidomide derivatives comprising boronic acid linkers) combined in a 1:1 ratio.
HeLa cells (2.5×106) were treated for 24 hours with the compounds solubilized in DMSO. The compounds were added at 10 μM each. Standardized protein samples were electrophoresed and imaged as described in the immunoblotting section above. […]

The target of test [2] is T1, BRD4. Nature of the test: Summary of BRD4 degradation by CURE-PRO pairs, estimated from Western Blot or WES (Proteinsimple). As to conditions: for Degradation of BRD4 in combination with CRBN ligand [drawing 371]: second drawing (8047); for Degradation of BRD4 in combination with CRBN ligand [drawing 407]: first drawing (by text: 8048). Further details: endogenous in cells. The source says: A black check mark indicates efficacy of 30% to 70% or higher protein degradation.

The target in test [3] is T1, BRD4. Nature of the test: CURE-PRO-mediated BRD4 degradation with MDM2 ligands, WES (ProteinSimple), HCT116 cells. To be noted: HCT116, 24 h, WES; for BRD4 degradation, in combination with MDM2 ligand 8313: 1:1 with 8313, 1-10 μM each; for BRD4 degradation, in combination with MDM2 ligand 8314: 1:1 with 8314, 1-10 μM each. The arrangement: endogenous in cells. The procedure: as §1
WES Simple analysis was performed on WES system (ProteinSimple-Biotechne) according to the manufacturer's instructions. Total protein concentrations of cell lysates were determined by the Pierce BCA kit (Thermo Fisher). 3 μL of 0.3 μg/μL of the protein lysate was loaded onto a 12- to 230-kDa WES assay plate (ProteinSimple) where 300 nL sample was withdrawn through a capillary, subjected to electrophoretic separation of proteins by size, and followed by the simultaneous, HRP-based detection of proteins using the Anti-Rabbit Detection Module (Proteinsimple: #DM-001). The electropherograms were checked then the automatic peak detection was manually corrected if it was required.
HCT116 cells (3×10^6) were treated for 24 hours with the compounds solubilized in DMSO. Compounds were added at 1 μM-10 μM each. Standardized protein samples were electrophoresed and imaged as described in the WES ProteinSimple section above. FIGS. 59, 60, and 61 depict the concentration-dependence of CURE-PRO-mediated BRD4 degradation using MDM2 ligands.
HCT116 cells (3×10^6) were treated for 24 hours with the compounds solubilized in DMSO. Compounds were added at 1 μM-10 μM each. Standardized protein samples were electrophoresed and imaged as described in the WES ProteinSimple section above. FIGS. 62 and 63 depict the concentration-dependence of CURE-PRO-mediated BRD4 degradation using MDM2 ligands.
HCT116 cells (3×10^6) were treated for 24 hours with the compounds solubilized in DMSO. CURE-PRO monomers were added at 10 μM each and the proteasomal inhibitors at 1 μM. Standardized protein samples were electrophoresed and imaged as described in the WES ProteinSimple section above. FIG. 68 depicts the dependence of the proteasome for CURE-PRO-mediated BRD4 degradation.

Setting [4] is: Table 4, aryl-boronic acid-containing CRBN ligand.

Entries after “also recorded” stand apart in the source; their conditions may differ.

With `CCNC(=O)C[C@@H]1N=C(c2ccc(Cl)cc2)c2cc(OCCNC(=O)c3cccc(B(O)O)c3)ccc2-n2c(C)nnc21` [BRD-E21, (3-((2-(((4S)-6-(4-chlorophenyl)-4-(2-(ethylamino)-2-oxoethyl)-1-methyl-4H-benzo[f][1,2,4]triazolo[4,3-a][1,4]diazepin-8-yl)oxy)ethyl)carbamoyl)phenyl)boronic acid], the “Concentration from which BRD4 degradation is observed, co-dosed with 8047” value at BRD4 [1] (1:1 with 8047, tested 1 nM-1 μM each) is given as at least 10 nM. Besides, on BRD4 [1] (Western blot), the “BRD4 degradation, BRD ligand alone” value is “no change in expression”. At BRD4 [2] (Table 1, CRBN ligand), the “Degradation of BRD4 in combination with CRBN ligand [drawing 371]” value is “✓ (A black check mark indicates efficacy of 30% to 70% or higher protein degradation)”. In addition, at BRD4 [3], the “BRD4 degradation, in combination with MDM2 ligand 8313” value is recorded as “had no effect on BRD4 protein levels” and the “BRD4 degradation, in combination with MDM2 ligand 8314” value is recorded as “caused partial loss of the BRD4 protein; also recorded: Degradation is observed”.

As to `COc1ccc2c(c1)C(c1ccc(Cl)cc1)=N[C@@H](CC(=O)NCCc1ccc(B(O)O)cc1)c1nnc(C)n1-2` [BRD-E14, (4-(2-(2-((4S)-6-(4-chlorophenyl)-8-methoxy-1-methyl-4H-benzo[f][1,2,4]triazolo[4,3-a][1,4]diazepin-4-yl)acetamido)ethyl)phenyl)boronic acid], the “BRD4 degradation, co-treatment with CRBN ligand 8047” value at BRD4 [1] (1:1 with 8047, 10 μM each, Western blot) is reported as “causes degradation of BRD4; also recorded: Degradation is noted”. The “Degradation of BRD4 in combination with CRBN ligand [drawing 371]” value on BRD4 [2] (Table 1, CRBN ligand) was “✓ (A black check mark indicates efficacy of 30% to 70% or higher protein degradation)”. Besides, the “Degradation of BRD4 in combination with VHL ligand [drawing 397]” value on BRD4 [2] (Table 3, aromatic 1,2-diol-containing VHL ligand, second drawing (8305)) was “✓ (A black check mark indicates efficacy of 30% to 70% or higher protein degradation)”. On BRD4 [3], the “BRD4 degradation, in combination with MDM2 ligand 8314” value is recorded as “caused partial loss of the BRD4 protein; also recorded: Degradation is observed”.

For `COc1ccc2c(c1)C(c1ccc(Cl)cc1)=N[C@@H](CC(=O)NCCCCCNC(=O)c1cccc(B(O)O)c1)c1nnc(C)n1-2` [BRD-E8], at BRD4 [1] (1:1 with 8046), the “Concentration at which BRD4 degradation is observed, co-dosed with 8046” value was 1 µM. The “BRD4 degradation, co-treatment with CRBN ligand 8046” value on BRD4 [1] (1:1 with 8046, 10 μM each, Western blot) was “causes degradation of BRD4; also recorded: Degradation is noted”. For the same compound, the “Concentration at which BRD4 degradation is observed, co-dosed with 8046” value at BRD4 [1] (1:1 with 8046, tested 1 nM-1 μM each) came to 0.1 µM. At BRD4 [1] (1:1 with 8066, 10 μM each (BRD-E10: 10 and 100 μM), Western blot), the “BRD4 degradation, co-treatment with CRBN ligand 8066” value is listed as “causes degradation of BRD4; also recorded: Degradation is noted”. Moreover, the “BRD4 degradation, BRD ligand alone” value on BRD4 [1] (Western blot) is listed as “no change in expression”. Besides, at BRD4 [2] (Table 1, CRBN ligand, third drawing (8066)), the “Degradation of BRD4 in combination with CRBN ligand [drawing 372]” value is “✓ (A black check mark indicates efficacy of 30% to 70% or higher protein degradation)”. In addition, the “Degradation of BRD4 in combination with CRBN ligand [drawing 370]” value on BRD4 [2] (Table 1, aromatic 1,2-diol- or hindered cis-1,2-diol-containing CRBN ligand, first drawing (8046)) was “✓ (A black check mark indicates efficacy of 30% to 70% or higher protein degradation)”. Moreover, at BRD4 [3], the “BRD4 degradation, in combination with MDM2 ligand 8313” value is listed as “had no effect on BRD4 protein levels” and the “BRD4 degradation, in combination with MDM2 ligand 8314” value is “caused partial loss of the BRD4 protein; also recorded: Degradation is observed”.

As for `COc1ccc2c(c1)C(c1ccc(Cl)cc1)=N[C@@H](CC(=O)NCCOCCOCCOCCOCCNC(=O)c1ccc(O)c(O)c1)c1nnc(C)n1-2` [BRD-N69], on BRD4 [1] (Western blot), the “BRD4 degradation, co-treatment with CRBN ligand 8048” value is given as “causes degradation of BRD4; also recorded: Degradation is noted”; the “BRD4 degradation, co-treatment with CRBN ligand 8049” value is “no evidence of BRD4 degradation”; the “BRD4 degradation, BRD ligand alone” value is given as “no degradation of BRD4”. Also, the “Degradation of BRD4 in combination with CRBN ligand [drawing 407]” value (“Degradation of BRD4 … [drawing 407]” below) on BRD4 [2] (setting [4]) is “✓ (A black check mark indicates efficacy of 30% to 70% or higher protein degradation)”.

Turning to `CCNC(=O)C[C@@H]1N=C(c2ccc(Cl)cc2)c2cc(-c3ccc4cc(O)c(O)cc4c3)ccc2-n2c(C)nnc21` [BRD-N67], on BRD4 [1] (Western blot), the “BRD4 degradation, co-treatment with CRBN ligand 8048” value is “causes degradation of BRD4”; the “BRD4 degradation, co-treatment with CRBN ligand 8049” value was “causes degradation of BRD4”; the “BRD4 degradation, BRD ligand alone” value is “no degradation of BRD4”. Also, on BRD4 [2] (setting [4]), the “Degradation of BRD4 … [drawing 407]” value is reported as “✓ (A black check mark indicates efficacy of 30% to 70% or higher protein degradation)”. Further, the “Degradation of BRD4 in combination with CRBN ligand [drawing 408]” value at BRD4 [2] (Table 4, aryl-boronic acid-containing CRBN ligand, second drawing (by text: 8049)) is recorded as “✓ (A black check mark indicates efficacy of 30% to 70% or higher protein degradation)”.

Take `COc1ccc2c(c1)C(c1ccc(Cl)cc1)=N[C@@H](CC(=O)NCCCCNC(=O)c1ccc(O)c(O)c1)c1nnc(C)n1-2` [BRD-N5]: at BRD4 [1] (Western blot), the “BRD4 degradation, co-treatment with CRBN ligand 8048” value is “causes degradation of BRD4; also recorded: Degradation is noted”; the “BRD4 degradation, co-treatment with CRBN ligand 8049” value is “no evidence of BRD4 degradation”; the “BRD4 degradation, BRD ligand alone” value is “no degradation of BRD4”. The “Degradation of BRD4 … [drawing 407]” value at BRD4 [2] (setting [4]) is recorded as “✓ (A black check mark indicates efficacy of 30% to 70% or higher protein degradation)”.
